Measurements as given in patent US20170190705A1, “Compositions and Methods for Inhibiting BMP” (THE BRIGHAM AND WOMAN'S HOSPITAL, INC., priority 2014, published 2017).

Columns and labels:
Assay type in all cases: biochemical
EPHB3 = biological target: T1, EPHB3 (Homo sapiens, UniProt P54753); test: Kinome profiling EPHB3; conditions: read-out: Inhibitory activity EPHB3; for inhibition at 0.1 µM: 100 nM
T1 sequence (P54753 34-998): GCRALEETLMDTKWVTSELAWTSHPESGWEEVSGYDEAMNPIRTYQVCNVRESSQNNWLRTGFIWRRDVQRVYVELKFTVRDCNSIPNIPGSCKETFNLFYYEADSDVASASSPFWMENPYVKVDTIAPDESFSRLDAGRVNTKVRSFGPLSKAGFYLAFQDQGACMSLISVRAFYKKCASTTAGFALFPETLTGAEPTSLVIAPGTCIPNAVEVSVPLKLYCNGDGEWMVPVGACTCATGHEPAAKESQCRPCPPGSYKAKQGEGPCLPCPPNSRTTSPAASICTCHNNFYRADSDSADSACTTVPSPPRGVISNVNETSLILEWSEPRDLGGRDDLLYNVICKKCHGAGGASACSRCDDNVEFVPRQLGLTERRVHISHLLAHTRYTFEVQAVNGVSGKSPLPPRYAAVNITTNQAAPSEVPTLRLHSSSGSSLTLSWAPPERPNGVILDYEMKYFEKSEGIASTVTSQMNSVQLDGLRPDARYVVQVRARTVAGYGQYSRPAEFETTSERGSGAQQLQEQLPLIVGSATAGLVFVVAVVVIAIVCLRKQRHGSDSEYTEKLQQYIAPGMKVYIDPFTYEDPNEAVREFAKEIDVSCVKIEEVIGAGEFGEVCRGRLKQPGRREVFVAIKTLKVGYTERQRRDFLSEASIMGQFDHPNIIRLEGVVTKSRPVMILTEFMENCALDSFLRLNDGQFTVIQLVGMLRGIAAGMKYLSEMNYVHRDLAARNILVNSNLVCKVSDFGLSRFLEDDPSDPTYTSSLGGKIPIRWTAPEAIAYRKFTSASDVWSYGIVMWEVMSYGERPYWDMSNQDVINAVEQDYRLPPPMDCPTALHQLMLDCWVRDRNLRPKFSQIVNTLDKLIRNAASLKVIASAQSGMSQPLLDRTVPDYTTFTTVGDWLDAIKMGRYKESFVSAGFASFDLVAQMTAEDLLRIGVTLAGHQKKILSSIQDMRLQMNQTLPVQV
Protocol: (§1) . The kinome-wide selectivity was determined following the methods previously reported by Mohedas et al., ACS Chem Biol 2013, 8, 1291-1302 and Sanvitale et al., PLoS One 2013, 8, e62721.

P38δ = biological target: T2, P38δ (Homo sapiens, UniProt O15264); test: Kinome profiling P38δ; conditions: read-out: Inhibitory activity P38δ; for inhibition at 0.1 µM: 100 nM
T2 sequence (O15264 1-365): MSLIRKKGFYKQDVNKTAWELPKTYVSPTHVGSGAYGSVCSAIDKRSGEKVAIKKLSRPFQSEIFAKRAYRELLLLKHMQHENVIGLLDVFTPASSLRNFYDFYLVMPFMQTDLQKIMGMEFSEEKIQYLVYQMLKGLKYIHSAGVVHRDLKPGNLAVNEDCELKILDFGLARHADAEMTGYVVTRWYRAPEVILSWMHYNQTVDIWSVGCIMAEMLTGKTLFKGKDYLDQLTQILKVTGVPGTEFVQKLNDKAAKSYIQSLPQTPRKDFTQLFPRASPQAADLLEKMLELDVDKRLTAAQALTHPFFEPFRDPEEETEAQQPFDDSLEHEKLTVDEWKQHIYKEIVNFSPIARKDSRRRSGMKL
Protocol: as §1

LOK = LOK (Homo sapiens, UniProt O94804); test: Kinome profiling LOK; conditions: read-out: Inhibitory activity LOK; for inhibition at 0.1 µM: 100 nM
Sequence of LOK (O94804 whole entry): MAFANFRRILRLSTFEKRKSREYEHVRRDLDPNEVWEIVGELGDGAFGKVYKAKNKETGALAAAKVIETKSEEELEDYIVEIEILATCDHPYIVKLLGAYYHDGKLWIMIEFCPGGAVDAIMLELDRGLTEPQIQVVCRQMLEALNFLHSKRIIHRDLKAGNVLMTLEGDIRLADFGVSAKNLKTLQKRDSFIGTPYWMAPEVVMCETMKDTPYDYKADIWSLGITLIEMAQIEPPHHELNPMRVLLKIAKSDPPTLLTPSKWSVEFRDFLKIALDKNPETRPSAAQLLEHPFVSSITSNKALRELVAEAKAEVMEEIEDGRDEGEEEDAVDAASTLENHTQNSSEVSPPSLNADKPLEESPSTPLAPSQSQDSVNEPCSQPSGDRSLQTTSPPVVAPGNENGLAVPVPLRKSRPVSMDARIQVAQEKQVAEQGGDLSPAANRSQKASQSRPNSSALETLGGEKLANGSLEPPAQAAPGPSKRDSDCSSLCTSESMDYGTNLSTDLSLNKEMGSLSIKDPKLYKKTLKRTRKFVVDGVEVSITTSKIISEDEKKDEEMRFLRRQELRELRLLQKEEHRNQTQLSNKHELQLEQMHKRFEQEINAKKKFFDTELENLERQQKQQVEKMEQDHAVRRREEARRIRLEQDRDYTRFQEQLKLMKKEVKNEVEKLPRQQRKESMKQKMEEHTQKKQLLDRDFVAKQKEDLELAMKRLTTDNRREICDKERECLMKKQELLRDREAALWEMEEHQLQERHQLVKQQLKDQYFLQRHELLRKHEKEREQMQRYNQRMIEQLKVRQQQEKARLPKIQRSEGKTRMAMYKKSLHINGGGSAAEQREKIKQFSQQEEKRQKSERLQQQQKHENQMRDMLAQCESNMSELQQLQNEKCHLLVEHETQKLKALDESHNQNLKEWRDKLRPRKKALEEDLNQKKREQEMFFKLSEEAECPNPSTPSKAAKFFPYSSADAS
Protocol: as §1

P38γ = biological target: T3, P38γ (Homo sapiens, UniProt P53778); test: Kinome profiling P38γ; conditions: read-out: Inhibitory activity P38γ; for inhibition at 0.1 µM: 100 nM
T3 sequence (P53778 1-367): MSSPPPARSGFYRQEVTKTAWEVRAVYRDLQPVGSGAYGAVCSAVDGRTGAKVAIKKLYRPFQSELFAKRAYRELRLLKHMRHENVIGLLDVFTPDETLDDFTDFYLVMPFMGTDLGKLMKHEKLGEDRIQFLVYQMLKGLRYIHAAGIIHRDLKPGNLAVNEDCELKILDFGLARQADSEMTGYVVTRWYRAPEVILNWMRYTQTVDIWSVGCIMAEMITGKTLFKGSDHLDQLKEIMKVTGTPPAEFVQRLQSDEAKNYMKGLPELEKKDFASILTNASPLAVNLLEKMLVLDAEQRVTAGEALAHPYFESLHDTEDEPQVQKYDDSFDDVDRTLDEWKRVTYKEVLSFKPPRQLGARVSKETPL
Protocol: as §1

PTK5 = PTK5 (Homo sapiens, UniProt P42685); test: Kinome profiling PTK5; conditions: read-out: Inhibitory activity PTK5; for inhibition at 0.1 µM: 100 nM
Sequence of PTK5 (P42685 whole entry): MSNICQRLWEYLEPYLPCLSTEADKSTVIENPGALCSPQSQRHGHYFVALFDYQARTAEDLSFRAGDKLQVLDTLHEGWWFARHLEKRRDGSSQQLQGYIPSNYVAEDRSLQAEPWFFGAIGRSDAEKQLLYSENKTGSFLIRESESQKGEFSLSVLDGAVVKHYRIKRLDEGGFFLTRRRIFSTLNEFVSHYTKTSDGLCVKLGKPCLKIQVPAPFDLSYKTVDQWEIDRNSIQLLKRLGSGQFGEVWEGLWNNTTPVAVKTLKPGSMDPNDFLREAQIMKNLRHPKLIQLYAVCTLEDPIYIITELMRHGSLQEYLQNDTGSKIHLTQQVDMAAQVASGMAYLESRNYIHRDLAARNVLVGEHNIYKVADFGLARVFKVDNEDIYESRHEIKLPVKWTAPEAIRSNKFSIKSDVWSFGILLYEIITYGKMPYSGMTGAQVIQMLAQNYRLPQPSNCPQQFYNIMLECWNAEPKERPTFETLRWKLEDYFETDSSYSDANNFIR
Protocol: as §1

| SMILES | inhibition at 0.1 µM (EPHB3) [%] | inhibition at 1 µM (EPHB3) [%] | inhibition at 0.1 µM (P38δ) [%] | inhibition at 1 µM (P38δ) [%] | inhibition at 0.1 µM (LOK) [%] | inhibition at 1 µM (LOK) [%] | inhibition at 0.1 µM (P38γ) [%] | inhibition at 1 µM (P38γ) [%] | inhibition at 0.1 µM (PTK5) [%] | inhibition at 1 µM (PTK5) [%] |
| --- | --- | --- | --- | --- | --- | --- | --- | --- | --- | --- |
| COc1cc(-c2cc(-c3ccc(N4CCNCC4)cc3)cnc2C)cc(OC)c1OC [Compound 10, 1-(4-(6-methyl-5-(3,4,5-trimethoxyphenyl)pyridin-3-yl)phenyl)piperazine] | 1 | 1 | 1 | -1 | 9 | 47 | -2 | 1 | 1 | 11 |
| COc1cc(-c2cc(-c3ccc(N4CCNCC4)cc3)cnc2N)cc(OC)c1OC [Compound 15, 5-(4-(piperazin-1-yl)phenyl)-3-(3,4,5-trimethoxyphenyl)pyridin-2-amine] | 5 | 7 | 2 | 1 | 32 | 73 | 2 | 1 | 17 | 66 |
